Experiments:
Assay in all cases: Large panel kinase profiling
Type in all cases: biochemical
Details in all cases: 1 μM test article, 1 mM ATP
AAK1 = AAK1 (Homo sapiens, UniProt Q2M2I8)
Outline: (§1)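 Continuous-read kinase assay: chelation-sensor peptide, 1 mM ATP, compound at 1 μM. Plates kept at 30° C.; fluorescence sampled at 1-min intervals (360/485 nm).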

CDC42BPA/MRCKA = target: T1, CDC42BPA/MRCKA (Homo sapiens, UniProt Q5VT25)
T1 construct: AssayQuant Technologies, Inc. (ran the panel)
Outline: as §1

FGFR2 = FGFR2 (Homo sapiens, UniProt P21802)
Outline: as §1

FRK = target: T2, FRK (Homo sapiens, UniProt P42685)
T2 construct: AssayQuant Technologies, Inc. (service provider)
Outline: as §1

HIPK1 = target: T3, HIPK1 (Homo sapiens, UniProt Q86Z02)
T3 construct: AssayQuant Technologies, Inc. (service provider)
Outline: as §1

MST1R/RON = target: T4, MST1R/RON (Homo sapiens, UniProt Q04912)
T4 construct: AssayQuant Technologies, Inc. (assay service)
Outline: as §1

NEK9 = target: T5, NEK9 (Homo sapiens, UniProt Q8TD19)
T5 construct: AssayQuant Technologies, Inc. (assay service)
T5 sequence (Q8TD19 1-979): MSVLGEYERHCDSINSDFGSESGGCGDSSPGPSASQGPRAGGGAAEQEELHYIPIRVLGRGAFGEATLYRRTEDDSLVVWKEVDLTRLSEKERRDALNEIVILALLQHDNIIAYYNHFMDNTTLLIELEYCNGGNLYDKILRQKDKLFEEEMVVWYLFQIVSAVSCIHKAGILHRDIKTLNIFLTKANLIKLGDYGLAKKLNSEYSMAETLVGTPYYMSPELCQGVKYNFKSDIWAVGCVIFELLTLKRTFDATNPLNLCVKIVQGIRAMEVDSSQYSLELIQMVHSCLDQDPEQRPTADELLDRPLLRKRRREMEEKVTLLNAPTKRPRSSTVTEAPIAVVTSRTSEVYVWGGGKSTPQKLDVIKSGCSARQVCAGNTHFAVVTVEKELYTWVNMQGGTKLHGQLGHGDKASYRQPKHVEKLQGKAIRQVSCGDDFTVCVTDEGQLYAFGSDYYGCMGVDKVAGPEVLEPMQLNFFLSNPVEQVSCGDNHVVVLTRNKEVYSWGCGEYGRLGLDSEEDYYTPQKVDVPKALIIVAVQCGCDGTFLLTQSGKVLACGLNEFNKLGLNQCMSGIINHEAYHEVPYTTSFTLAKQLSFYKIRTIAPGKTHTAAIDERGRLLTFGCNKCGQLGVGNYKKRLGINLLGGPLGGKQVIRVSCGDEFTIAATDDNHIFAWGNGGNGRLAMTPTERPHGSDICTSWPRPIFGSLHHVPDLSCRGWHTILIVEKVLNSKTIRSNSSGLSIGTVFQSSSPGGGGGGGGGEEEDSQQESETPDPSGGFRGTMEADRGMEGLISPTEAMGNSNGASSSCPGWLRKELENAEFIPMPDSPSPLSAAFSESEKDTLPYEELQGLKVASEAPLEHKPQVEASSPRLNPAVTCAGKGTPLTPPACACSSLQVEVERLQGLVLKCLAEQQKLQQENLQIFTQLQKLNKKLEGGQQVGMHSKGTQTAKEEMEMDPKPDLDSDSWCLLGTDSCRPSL
Outline: as §1

PRKCG/PKCG = PRKCG/PKCG (Homo sapiens, UniProt P05129)
Outline: as §1

ROCK1 = ROCK1 (Homo sapiens, UniProt Q13464)
Outline: as §1

STK10/LOK = target: T6, STK10/LOK (Homo sapiens, UniProt O94804)
T6 construct: AssayQuant Technologies, Inc. (contract assay)
Outline: as §1

TEC = target: T7, TEC (Homo sapiens, UniProt P42680)
T7 construct: AssayQuant Technologies, Inc. (contract laboratory that ran the panel)
T7 sequence (P42680 1-631): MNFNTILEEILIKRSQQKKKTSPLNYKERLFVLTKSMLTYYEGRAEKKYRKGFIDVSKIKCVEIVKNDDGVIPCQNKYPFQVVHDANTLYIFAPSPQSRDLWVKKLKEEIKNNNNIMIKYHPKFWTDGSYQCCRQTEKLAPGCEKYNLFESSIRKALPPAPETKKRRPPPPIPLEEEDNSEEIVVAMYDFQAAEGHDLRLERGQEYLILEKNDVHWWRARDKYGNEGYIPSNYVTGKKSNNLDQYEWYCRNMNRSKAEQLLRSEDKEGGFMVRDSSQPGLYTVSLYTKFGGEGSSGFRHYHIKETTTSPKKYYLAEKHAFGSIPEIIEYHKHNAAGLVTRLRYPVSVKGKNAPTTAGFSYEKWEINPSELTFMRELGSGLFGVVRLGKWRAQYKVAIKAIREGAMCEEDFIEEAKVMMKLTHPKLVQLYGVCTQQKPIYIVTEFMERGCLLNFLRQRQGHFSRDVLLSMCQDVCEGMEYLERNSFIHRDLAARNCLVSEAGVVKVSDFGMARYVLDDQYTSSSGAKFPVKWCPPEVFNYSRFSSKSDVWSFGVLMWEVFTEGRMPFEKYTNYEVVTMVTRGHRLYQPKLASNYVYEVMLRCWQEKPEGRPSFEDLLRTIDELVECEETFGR
Outline: as §1

T6 sequence (O94804 whole entry): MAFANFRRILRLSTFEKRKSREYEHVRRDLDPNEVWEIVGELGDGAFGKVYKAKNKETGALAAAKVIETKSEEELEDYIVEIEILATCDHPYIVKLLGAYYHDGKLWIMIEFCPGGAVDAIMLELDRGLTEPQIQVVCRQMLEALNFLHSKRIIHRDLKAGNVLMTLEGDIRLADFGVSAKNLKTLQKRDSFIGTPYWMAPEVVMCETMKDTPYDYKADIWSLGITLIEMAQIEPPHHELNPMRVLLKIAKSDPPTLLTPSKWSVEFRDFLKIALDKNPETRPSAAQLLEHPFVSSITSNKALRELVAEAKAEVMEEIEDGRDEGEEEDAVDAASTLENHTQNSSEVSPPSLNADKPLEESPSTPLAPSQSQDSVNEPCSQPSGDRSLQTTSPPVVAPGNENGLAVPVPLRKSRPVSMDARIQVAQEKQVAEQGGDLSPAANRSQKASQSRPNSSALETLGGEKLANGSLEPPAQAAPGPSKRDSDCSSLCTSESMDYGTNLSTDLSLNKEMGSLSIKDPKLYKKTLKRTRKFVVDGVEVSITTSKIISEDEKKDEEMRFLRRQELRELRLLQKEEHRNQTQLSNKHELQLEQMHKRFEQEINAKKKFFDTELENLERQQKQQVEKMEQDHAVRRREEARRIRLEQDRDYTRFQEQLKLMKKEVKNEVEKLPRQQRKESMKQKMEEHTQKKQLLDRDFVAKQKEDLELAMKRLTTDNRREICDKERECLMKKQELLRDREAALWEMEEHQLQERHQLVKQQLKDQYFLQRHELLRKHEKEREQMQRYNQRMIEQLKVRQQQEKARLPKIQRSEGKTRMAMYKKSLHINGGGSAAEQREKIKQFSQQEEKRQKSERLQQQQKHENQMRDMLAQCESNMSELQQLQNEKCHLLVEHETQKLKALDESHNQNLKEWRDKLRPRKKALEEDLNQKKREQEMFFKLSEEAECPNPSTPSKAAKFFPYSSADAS
T3 sequence (Q86Z02 whole entry, species assumed): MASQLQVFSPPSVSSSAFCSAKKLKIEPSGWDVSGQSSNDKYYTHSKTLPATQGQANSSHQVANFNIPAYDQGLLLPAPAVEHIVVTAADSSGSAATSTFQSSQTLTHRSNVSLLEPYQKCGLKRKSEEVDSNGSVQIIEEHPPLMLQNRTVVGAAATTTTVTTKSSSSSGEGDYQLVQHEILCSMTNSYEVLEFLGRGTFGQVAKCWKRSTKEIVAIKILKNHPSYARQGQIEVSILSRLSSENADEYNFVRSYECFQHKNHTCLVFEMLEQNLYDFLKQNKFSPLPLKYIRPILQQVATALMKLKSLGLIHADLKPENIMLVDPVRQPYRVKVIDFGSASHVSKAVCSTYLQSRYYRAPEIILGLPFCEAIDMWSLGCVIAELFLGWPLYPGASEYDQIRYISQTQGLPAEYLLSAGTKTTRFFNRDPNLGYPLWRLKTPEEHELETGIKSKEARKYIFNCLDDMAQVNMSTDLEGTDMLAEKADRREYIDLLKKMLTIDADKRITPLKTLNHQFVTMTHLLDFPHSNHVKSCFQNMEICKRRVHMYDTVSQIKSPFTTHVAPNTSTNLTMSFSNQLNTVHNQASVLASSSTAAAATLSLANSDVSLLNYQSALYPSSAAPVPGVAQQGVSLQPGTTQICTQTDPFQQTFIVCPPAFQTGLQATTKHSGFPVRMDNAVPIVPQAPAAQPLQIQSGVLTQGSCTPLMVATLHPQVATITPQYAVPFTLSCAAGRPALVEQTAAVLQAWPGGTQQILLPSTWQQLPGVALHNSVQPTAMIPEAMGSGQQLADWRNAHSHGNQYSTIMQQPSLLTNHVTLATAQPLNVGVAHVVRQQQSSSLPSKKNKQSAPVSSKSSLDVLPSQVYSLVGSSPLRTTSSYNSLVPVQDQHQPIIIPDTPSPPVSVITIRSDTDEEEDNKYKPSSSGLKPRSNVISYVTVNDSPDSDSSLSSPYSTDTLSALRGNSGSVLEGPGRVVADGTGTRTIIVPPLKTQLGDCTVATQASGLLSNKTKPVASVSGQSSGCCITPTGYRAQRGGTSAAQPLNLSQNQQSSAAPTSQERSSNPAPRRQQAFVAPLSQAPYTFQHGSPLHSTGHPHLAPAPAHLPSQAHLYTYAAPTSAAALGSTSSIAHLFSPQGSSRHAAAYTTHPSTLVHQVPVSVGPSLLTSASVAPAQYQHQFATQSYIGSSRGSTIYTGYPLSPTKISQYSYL
T1 sequence (Q5VT25 whole entry): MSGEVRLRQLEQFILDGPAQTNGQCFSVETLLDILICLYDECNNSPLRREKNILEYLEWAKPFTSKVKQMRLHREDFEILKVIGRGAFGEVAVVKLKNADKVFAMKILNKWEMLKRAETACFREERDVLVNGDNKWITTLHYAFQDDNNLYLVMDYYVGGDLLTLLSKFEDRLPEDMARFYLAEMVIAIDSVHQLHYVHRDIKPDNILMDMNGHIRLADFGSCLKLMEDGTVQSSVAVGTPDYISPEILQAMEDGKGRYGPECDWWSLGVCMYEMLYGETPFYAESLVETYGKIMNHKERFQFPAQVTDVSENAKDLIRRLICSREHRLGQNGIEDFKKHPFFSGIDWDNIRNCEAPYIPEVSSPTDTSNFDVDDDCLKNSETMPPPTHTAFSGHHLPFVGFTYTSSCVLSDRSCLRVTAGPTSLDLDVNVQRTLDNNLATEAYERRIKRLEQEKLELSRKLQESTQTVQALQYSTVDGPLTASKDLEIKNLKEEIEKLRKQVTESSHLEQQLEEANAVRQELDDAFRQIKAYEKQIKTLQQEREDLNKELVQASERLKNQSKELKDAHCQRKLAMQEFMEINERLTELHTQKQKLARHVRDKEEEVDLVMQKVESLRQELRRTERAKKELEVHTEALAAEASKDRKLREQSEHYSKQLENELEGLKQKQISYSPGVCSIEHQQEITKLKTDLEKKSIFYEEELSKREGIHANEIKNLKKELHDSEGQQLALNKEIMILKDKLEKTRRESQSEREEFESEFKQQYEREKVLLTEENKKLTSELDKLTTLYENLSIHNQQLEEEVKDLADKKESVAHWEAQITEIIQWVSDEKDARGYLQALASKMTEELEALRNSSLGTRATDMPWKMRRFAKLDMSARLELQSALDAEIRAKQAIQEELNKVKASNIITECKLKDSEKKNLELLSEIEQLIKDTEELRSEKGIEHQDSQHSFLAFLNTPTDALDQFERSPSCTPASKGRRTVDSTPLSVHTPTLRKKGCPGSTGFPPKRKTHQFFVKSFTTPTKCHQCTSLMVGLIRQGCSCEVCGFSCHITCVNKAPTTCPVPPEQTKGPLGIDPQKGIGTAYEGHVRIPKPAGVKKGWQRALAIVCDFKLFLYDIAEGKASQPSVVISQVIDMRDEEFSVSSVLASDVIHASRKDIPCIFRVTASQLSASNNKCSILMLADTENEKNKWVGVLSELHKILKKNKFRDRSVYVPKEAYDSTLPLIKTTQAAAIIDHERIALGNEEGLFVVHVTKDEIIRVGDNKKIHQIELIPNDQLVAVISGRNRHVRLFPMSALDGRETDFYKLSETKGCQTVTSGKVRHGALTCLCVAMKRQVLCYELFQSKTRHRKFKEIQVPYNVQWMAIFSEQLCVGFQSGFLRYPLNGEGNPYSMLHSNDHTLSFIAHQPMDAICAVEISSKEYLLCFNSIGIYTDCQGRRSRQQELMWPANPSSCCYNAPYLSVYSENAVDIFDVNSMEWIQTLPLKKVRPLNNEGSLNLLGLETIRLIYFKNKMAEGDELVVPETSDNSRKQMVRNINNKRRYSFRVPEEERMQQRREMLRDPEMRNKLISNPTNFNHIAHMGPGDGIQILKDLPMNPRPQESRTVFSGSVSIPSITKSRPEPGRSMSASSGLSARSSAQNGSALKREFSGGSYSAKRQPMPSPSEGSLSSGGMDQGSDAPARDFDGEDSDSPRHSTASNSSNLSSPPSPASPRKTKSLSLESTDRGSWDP
T2 sequence (P42685 whole entry, species assumed): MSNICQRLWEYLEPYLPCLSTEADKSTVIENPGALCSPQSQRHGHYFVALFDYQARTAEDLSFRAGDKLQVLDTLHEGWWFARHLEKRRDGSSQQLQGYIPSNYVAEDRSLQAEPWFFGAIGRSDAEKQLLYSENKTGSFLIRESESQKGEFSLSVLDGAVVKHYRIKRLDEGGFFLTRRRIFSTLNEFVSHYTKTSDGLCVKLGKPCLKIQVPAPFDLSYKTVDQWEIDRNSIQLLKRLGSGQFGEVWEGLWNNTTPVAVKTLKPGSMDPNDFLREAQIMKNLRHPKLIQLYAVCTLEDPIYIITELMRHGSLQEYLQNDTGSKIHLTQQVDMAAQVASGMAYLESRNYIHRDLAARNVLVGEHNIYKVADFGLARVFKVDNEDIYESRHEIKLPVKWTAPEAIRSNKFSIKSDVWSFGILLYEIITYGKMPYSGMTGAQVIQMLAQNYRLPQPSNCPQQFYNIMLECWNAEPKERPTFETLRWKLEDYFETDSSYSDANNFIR

C=CC(=O)N1CCCC(c2c(F)cc(C(N)=O)c3[nH]c4c(c23)CCCCC4)C1 (single isomer, unassigned) [Compound 5-6]
inhibition at 1 µM (AAK1): -20.3% | inhibition at 1 µM (CDC42BPA/MRCKA): -30.9% | inhibition at 1 µM (FGFR2): 17.7% | inhibition at 1 µM (FRK): 4.2% | inhibition at 1 µM (HIPK1): 6.6% | inhibition at 1 µM (MST1R/RON): -2.4% | inhibition at 1 µM (NEK9): -9.3% | inhibition at 1 µM (PRKCG/PKCG): -7.3% | inhibition at 1 µM (ROCK1): 3.5% | inhibition at 1 µM (STK10/LOK): 3.1% | inhibition at 1 µM (TEC): 80.3%

C=CC(=O)N1CCC[C@@H](c2c(F)cc(C(N)=O)c3[nH]c4c(c23)CCC4)C1 [Compound 10-2, (S)-8-(1-acryloylpiperidin-3-yl)-7-fluoro-1,2,3,4-tetrahydrocyclo-penta[b]indole-5-carboxamide]
inhibition at 1 µM (AAK1): -14.3% | inhibition at 1 µM (CDC42BPA/MRCKA): 1.8% | inhibition at 1 µM (FGFR2): -3.5% | inhibition at 1 µM (FRK): -4.1% | inhibition at 1 µM (HIPK1): 33.6% | inhibition at 1 µM (MST1R/RON): -2.5% | inhibition at 1 µM (NEK9): 2.4% | inhibition at 1 µM (PRKCG/PKCG): 1.3% | inhibition at 1 µM (ROCK1): 13.7% | inhibition at 1 µM (STK10/LOK): -8.7% | inhibition at 1 µM (TEC): 76.1%

C=CC(=O)N1CCC[C@@H](c2c(F)cc(C(N)=O)c3[nH]c4c(c23)CC2(CC4)CC2)C1 [Compound 6-2, (S)-5-(1-acryloylpiperidin-3-yl)-6-fluoro-1,2,4,9-tetrahydrospiro[carbazole-3,1′-cyclopropane]-8-carboxamide]
inhibition at 1 µM (AAK1): -15.7% | inhibition at 1 µM (CDC42BPA/MRCKA): -16.2% | inhibition at 1 µM (FGFR2): -15.3% | inhibition at 1 µM (FRK): -2.8% | inhibition at 1 µM (HIPK1): 41.1% | inhibition at 1 µM (MST1R/RON): -0.6% | inhibition at 1 µM (NEK9): 18% | inhibition at 1 µM (PRKCG/PKCG): 8.6% | inhibition at 1 µM (ROCK1): 2.5% | inhibition at 1 µM (STK10/LOK): 12.2% | inhibition at 1 µM (TEC): 84.5%

Reference: patent US20220009920A1 (GB005, Inc., priority 2020, published 2022)
